From patent publication US9403797B2, “5-(pyridin-2-yl-amino)-pyrazine-2-carbonitrile compounds and their therapeutic use” (Cancer Research Technology Limited, priority 2011, dated 2016)
Where two headings read alike, the source gives them in different places. Each block holds one compound with its values, some of them ahead of it.

Assays:
[1] = in vivo; settings: female, BALB/c, mouse, Oral bioavail. (plasma concentration, 1 hour following 10 mg/kg p.o.)
[2] = target: CHK1 (Homo sapiens (Human), UniProt O14757); test: Inhibitor potency vs. CHK1 (Assay 1A DELFIA or Assay 1B Caliper format); format: biochemical
CHK1, sequence (O14757 whole entry): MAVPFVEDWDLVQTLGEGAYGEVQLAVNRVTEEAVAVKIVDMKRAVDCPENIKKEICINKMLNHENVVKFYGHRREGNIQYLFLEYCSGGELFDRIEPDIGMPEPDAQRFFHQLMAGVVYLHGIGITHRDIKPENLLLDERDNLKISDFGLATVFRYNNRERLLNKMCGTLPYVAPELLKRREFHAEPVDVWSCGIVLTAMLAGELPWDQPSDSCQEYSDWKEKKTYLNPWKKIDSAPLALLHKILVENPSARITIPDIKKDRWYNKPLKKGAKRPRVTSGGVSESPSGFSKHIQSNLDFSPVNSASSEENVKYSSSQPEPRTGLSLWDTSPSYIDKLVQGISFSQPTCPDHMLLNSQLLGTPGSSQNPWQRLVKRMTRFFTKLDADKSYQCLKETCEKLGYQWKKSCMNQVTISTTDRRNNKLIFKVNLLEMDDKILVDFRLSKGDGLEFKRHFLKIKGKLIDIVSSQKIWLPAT
Description: Assay 1A: Determination of Inhibitor Potency vs. CHK1 in DELFIA Assay Format
CHK1 kinase function was measured in a DELFIA® assay in order to monitor phosphorylation of a CDC25C peptide using a specific phospho antibody. […] The reaction mixture was incubated for 30 minutes at room temperature and then stopped by the addition of buffer (125 μL) containing 40 mM EDTA, 0.05% Tween 20, 0.1% BSA in TBS (10× concentrate, Sigma). An aliquot (100 μL) of the stopped reaction mixture was transferred to a black neutravidin-coated plate (Perbio) and incubated for 1 hour on a shaker (Titertek, Flow Laboratories) at room temperature. […] The plates were washed a further four times with wash buffer before the addition of enhancement solution (100 μL/well, PerkinElmer Life Sciences).
Assay 1B: Determination of Inhibitor Potency Vs. CHK1 in Caliper Assay Format
CHK1 kinase activity was measured in a microfluidic assay that monitors the separation of a phosphorylated product from its substrate. […] For each test compound a 50 μM stock concentration in 100% DMSO was used. […] The plate was sealed and centrifuged (1 minutes, 1000 rpm) before incubation for one hour at room temperature. The reaction was stopped by the addition of separation buffer (90 μL). […] IC50 values were calculated in GraphPad Prism5 using a non linear regression fit of the log (inhibitor) vs. response with variable slope equation.

[3] = tested on: TH-MYCN neuroblastoma; test: In Vivo Study 1: transgenic MYCN-driven neuroblastoma model; set-up: species or system mouse
Description: In Vivo Study 1: PAPC-A-01 in Transgenic MYCN-Driven Neuroblastoma Model
Spontaneous neuroblastomas arising in hemizygous mice transgenic for TH-MYCN (human MYCN under the control of the rat tyrosine hydroxylase promoter) were detected by abdominal palpation. Sequential animals with well-established tumours (30-70 days of age) were randomised to receive either test compound (PAPC-A-01) or vehicle until 8-9 mice per group were accrued. The test compound (PAPC-A-01) was administered as a single agent at 100 mg/kg p.o. daily for 7 consecutive days by oral gavage (100 μL/10 g body weight) and controls received an equivalent volume of vehicle (10% DMSO, 5% Tween 20, 85% saline). Neuroblastoma size was assessed by MRI and by the mass of tumours dissected from the abdominal cavity at the end of therapy.
^1H MRI was performed on a 7T Bruker horizontal bore microimaging system (Bruker Instruments, Ettlingen, Germany) using a 3 cm birdcage coil. Anaesthesia was induced a combination of fentanyl citrate (0.315 mg/mL) plus fluanisone (10 mg/mL) (Hypnorm, Janssen Pharmaceutical, Oxford, UK) and midazolam (5 mg/mL) (Roche, Welwyn Garden City, UK) and water (1:1:2). Animal body temperature was maintained by a warm air blower through the magnet bore.
Anatomical T2-weighted coronal and transverse images were acquired from twenty contiguous 1 mm-thick coronal slices through the mouse abdomen, using a rapid acquisition with refocused echoes (RARE) sequence with 4 averages of 128 phase encoding steps over a 3×3 cm field of view, two echoes of 36 and 132 ms, a TR of 4.5 s and a RARE factor of 8. Following MRI, the mice were left to recover on a heat mat for 24 hours. Tumour volumes were measured using segmentation from regions of interest drawn on every slice from the coronal T2 weighted images containing tumour using in-house software (ImageView, working under IDL, ITT, Boulder, Colo., USA).

[4] = target: CHK2 (Homo sapiens (Human), UniProt O96017); test: Inhibitor selectivity for inhibition of CHK1 vs. CHK2 (Assay 2, CHK2 DELFIA assay); format: biochemical; settings: CHK2 IC50/CHK1 IC50
CHK2, sequence (O96017 whole entry): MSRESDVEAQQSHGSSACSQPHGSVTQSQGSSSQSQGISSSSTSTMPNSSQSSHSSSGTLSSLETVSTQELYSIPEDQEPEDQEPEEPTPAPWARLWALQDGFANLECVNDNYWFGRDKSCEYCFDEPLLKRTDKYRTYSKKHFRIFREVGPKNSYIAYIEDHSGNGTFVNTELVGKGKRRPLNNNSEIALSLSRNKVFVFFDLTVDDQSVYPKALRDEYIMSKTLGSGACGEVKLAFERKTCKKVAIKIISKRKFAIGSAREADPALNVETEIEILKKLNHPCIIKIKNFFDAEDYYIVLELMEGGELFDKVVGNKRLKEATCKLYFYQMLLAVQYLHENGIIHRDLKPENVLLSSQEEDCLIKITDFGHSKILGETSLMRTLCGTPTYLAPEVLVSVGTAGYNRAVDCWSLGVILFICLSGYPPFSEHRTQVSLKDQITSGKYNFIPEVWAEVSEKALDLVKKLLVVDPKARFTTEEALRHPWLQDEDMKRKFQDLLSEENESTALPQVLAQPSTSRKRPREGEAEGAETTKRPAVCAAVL
Description: The plates were washed a further four times with wash buffer before the addition of enhancement solution (100 μL/well, PerkinElmer Life Sciences).

[5] = tested on: HT29 human colon carcinoma xenograft; test: In Vivo Study 2: combination with gemcitabine in HT29 human colon carcinoma xenograft; set-up: species or system mouse; settings: for Tumour growth inhibition relative to controls / T/C vs. vehicle controls: day 24; for T/C vs. vehicle controls: tumour volumes; for Mean tumour volume (cm^3, mean ± SEM): day 24 after start of therapy, PAPC-A-01 75 mg/kg p.o., gemcitabine 100 mg/kg i.v.
Description: In Vivo Study 2: PAPC-A-01 in Combination with Gemcitabine in HT29 Human Colon Carcinoma Xenograft
Animals weighed 20.3±2.0 g at the start of the study. Handing and all experimental procedures were performed under sterile conditions in laminar flow hoods in accordance with UK Home Office, national and local ethical guidelines.
HT29 colon carcinoma cells from the American Type Culture Collection (ATCC, LGC Promochem, Middesex, UK) were harvested from tissue culture flasks and injected subcutaneously in the right flanks of mice (3 million cells per site). Once tumours were established (mean diameter 0.55±0.05 cm) mice were randomised to treatment groups (n=6) to receive (a) test compound (PAPC-A-01) (75 mg/kg), (b) gemcitabine (100 mg/kg), (c) a combination (PAPC-A-01) (75 mg/kg) and gemcitabine (100 mg/kg), or (d) relevant vehicles.
Clinical grade gemcitabine hydrochloride (GEMZAR, Eli Lilly, Newmarket, UK) was reconstituted in sterile 0.9% sodium chloride and aliquots frozen at −20° C. Gemcitabine was administered intravenously once weekly via a lateral tail vein on days 0 (day 5 after tumour cell implantation), 7 and 14. Test compound (PAPC-A-01) was dissolved in 10% DMSO and diluted out in 5% Tween 20, 85% saline. Test compound (PAPC-A-01) was administered by oral gavage on days 1, 2, 8, 9, 15 and 16. The control animals received both vehicles by the appropriate route on the designated days. The compounds were administered in a volume of 100 μL per 10 g body weight.
Animals were observed daily and body weights and tumours measured three times weekly. Two perpendicular tumour diameters were used to calculate volumes using the formula: V=4/3π[(d1+d2)/4]^3.
T/C values (volumes of treated tumours vs. controls) were calculated with respect to vehicle control tumours or those treated with gemcitabine alone, expressed as a percentage.

[6] = tested on: HT29 cells; test: Mitosis Inhibition Assay (MIA), checkpoint abrogation; settings: Homo sapiens, HT-29, read-out: MIA IC50
[7] = Comparative oral bioavailability by limited sampling in vivo pharmacokinetics; settings: female, BALB/c, mouse, plasma, 10 mg/kg, Oral bioavail. (plasma concentration, 1 hour following 10 mg/kg p.o.), female BALB/c mice, expressed relative to 10 mg/kg p.o.
[8] = Assay 1A (DELFIA) or Assay 1B (Caliper), read-out: CHK1 IC50

SMILES: CNc1cc(Nc2cnc(C#N)c(O[C@H](C)CN(C)C)n2)ncc1C(=O)OC [PAPC-A-10, (R)-Methyl 6-((5-cyano-6-((1-(dimethylamino)propan-2-yl)oxy)pyrazin-2-yl)amino)-4-(methylamino)nicotinate]
- IC50 [2]: < 20 nM

SMILES: COc1cc(Nc2cnc(C#N)c(O[C@@H]3CCNC3)n2)ncc1-c1cnn(C)c1 [PAPC-B-01, (R)-5-((4-Methoxy-5-(1-methyl-1H-pyrazol-4yl)pyridin-2-yl)amino)-3-(pyrrolidin-3-yloxy)pyrazine-2-carbonitrile]
- IC50 [2]: < 20 nM

SMILES: COc1cc(Nc2cnc(C#N)c(O[C@H](C)CN(C)C)n2)ncc1-c1cnn(C)c1 [PAPC-A-01, (R)-3-((1-(Dimethylamino)propan-2-yl)oxy)-5-((4-methoxy-5-(1-methyl-1H-pyrazol-4-yl)pyridin-2-yl)amino)pyrazine-2-carbonitrile]
- T/C (tumour weight) ([3]; 100 mg/kg p.o. daily for 7 days): 13.4%
- MR imaging in individual mice, pre-treatment and on day 7 ([3]; 7 day treatment period, 100 mg/kg p.o. daily): tumour regression
- Mean weight of tumours at the end of the study ([3]; mean±SD, 100 mg/kg p.o. daily for 7 days, control 2.1±0.7 g): 0.3 ± 0.2 g
- Tumour volume (MRI) ([3]; one mouse, following 7 days treatment, 100 mg/kg p.o. daily, pre-treatment volume 1960 mm^3): 417 mm^3
- IC50 [2]: < 20 nM
- IC50 [2, 8]: 6 nM
- CHK1 vs. CHK2 selectivity [4]: 540-fold
- Tumour growth inhibition relative to controls [5]: no growth inhibition
- T/C vs. vehicle controls [5]: 101.4%
- Mean tumour volume (cm^3, mean ± SEM) [5]: 1.114 ± 0.257 cm^3

SMILES: Nc1ccn([C@@H]2O[C@H](CO)[C@@H](O)C2(F)F)c(=O)n1 [Gemcitabine, reference compound]
- Tumour growth inhibition relative to controls [5]: approximately 20%
- T/C vs. vehicle controls [5]: 80.8%
- Mean tumour volume (cm^3, mean ± SEM) [5]: 0.888 ± 0.188 cm^3

SMILES: COc1cc(Nc2cnc(C#N)c(O[C@@H]3CCN(C)C3)n2)ncc1-c1cnn(C)c1 [PAPC-B-02, (R)-5-((4-Methoxy-5-(1-methyl-1H-pyrazol-4-yl)pyridin-2-yl)amino)-3-((1-methylpyrrolidin-3-yl)oxy)pyrazine-2-carbonitrile]
- IC50 [2]: < 20 nM

SMILES: CNc1cc(Nc2cnc(C#N)c(O[C@@H]3CCNC3)n2)ncc1-c1cnn(C)c1 [PAPC-B-03, (R)-5-((5-(1-Methyl-1H-pyrazol-4-yl)-4-(methylamino)pyridin-2-yl)amino)-3-(pyrrolidin-3-yloxy)pyrazine-2-carbonitrile]
- IC50 [6]: < 500 nM

SMILES: COC(=O)c1cnc(Nc2cnc(C#N)c(O[C@@H]3CCNC3)n2)cc1N(C)C [PAPC-B-11, (R)-Methyl 6-((5-cyano-6-(pyrrolidin-3-yloxy)pyrazin-2-yl)amino)-4-(dimethylamino)nicotinate]
- IC50 [2]: < 20 nM

SMILES: CNc1cc(Nc2cnc(C#N)c(O[C@H]3CCN(C)C3)n2)ncc1-c1cnn(C)c1 [PAPC-B-06, (S)-5-((5-(1-Methyl-1H-pyrazol-4-yl)-4-(methylamino)pyridin-2-yl)amino)-3-((1-methylpyrrolidin-3-yl)oxy)pyrazine-2-carbonitrile]
- concentration at 1 h [1]: ≥ 10 nM
- IC50 [2]: < 20 nM

Second part, the compound after the results:

- concentration at 1 h [1]: ≥ 10 nM
SMILES: CNc1cc(Nc2cnc(C#N)c(O[C@H](C)CN(C)C)n2)ncc1C1CC1 [PAPC-A-09, (R)-5-((5-Cyclopropyl-4-(methylamino)pyridin-2-yl)amino)-3-((1-(dimethylamino)propan-2-yl)oxy)pyrazine-2-carbonitrile]

- IC50 [2]: < 20 nM
SMILES: CNc1cc(Nc2cnc(C#N)c(O[C@H](C)CN(C)C)n2)ncc1C#CC(C)(C)O [PAPC-A-08, (R)-3-((1-(Dimethylamino)propan-2-yl)oxy)-5-((5-(3-hydroxy-3-methylbut-1-yn-1-yl)-4-(methylamino)pyridin-2-yl)amino)pyrazine-2-carbonitrile]

- IC50 [2]: < 20 nM
SMILES: CNc1cc(Nc2cnc(C#N)c(O[C@@H]3CCN(C)C3)n2)ncc1-c1cnn(C)c1 [PAPC-B-05, (R)-5-((5-(1-Methyl-1H-pyrazol-4-yl)-4-(methylamino)pyridin-2-yl)amino)-3-((1-methylpyrrolidin-3-yl)oxy)pyrazine-2-carbonitrile]

- IC50 [2, 8]: < 20 nM
SMILES: C[C@H](CN(C)C)Oc1nc(Nc2cc(N(C)C)c(-c3cnn(C)c3)cn2)cnc1C#N [PAPC-A-03, (R)-5-((4-(Dimethylamino)-5-(1-methyl-1H-pyrazol-4-yl)pyridin-2-yl)amino)-3-((1-(dimethylamino)propan-2-yl)oxy)pyrazine-2-carbonitrile]

- IC50 [6]: < 500 nM
SMILES: CNc1cc(Nc2cnc(C#N)c(O[C@H]3CCNC3)n2)ncc1-c1cnn(C)c1 [PAPC-B-04, (S)-5-((5-(1-Methyl-1H-pyrazol-4-yl)-4-(methylamino)pyridin-2-yl)amino)-3-(pyrrolidin-3-yloxy)pyrazine-2-carbonitrile]

- concentration at 1 h [7]: ≥ 10 nM
- IC50 [2, 8]: < 20 nM
SMILES: CNc1cc(Nc2cnc(C#N)c(O[C@@H]3CCNC3)n2)ncc1C#CC(C)(C)O [PAPC-B-08, (R)-5-((5-(3-Hydroxy-3-methylbut-1-yn-1-yl)-4-(methylamino)pyridin-2-yl)amino)-3-(pyrrolidin-3-yloxy)pyrazine-2-carbonitrile]
